Measured values: patent US20090118332A1, “Therapeutic Agents - 551” (AstraZeneca AB, priority 2006, published 2009)

Molecular target: T1, human Fatty Acid Synthase (Homo sapiens, UniProt P49327)
T1 construct: made in house
Test: Human FAS enzyme assay (decrease in NADPH fluorescence)
Type: biochemical
Conditions: % inhibition at a concentration of 100 μmolar
Procedure, shortened: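 In-house human FAS was preincubated with compound and NADPH for 15 min at room temperature in 0.1 M Tris pH 7.5 with EDTA, glutathione and BSA. Malonyl CoA and acetyl CoA (500 μM and 150 μM in the added mix) were then added for 60 min. IC50 came from time-zero-subtracted NADPH fluorescence (340/460 nm).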

T1 sequence (P49327 whole entry): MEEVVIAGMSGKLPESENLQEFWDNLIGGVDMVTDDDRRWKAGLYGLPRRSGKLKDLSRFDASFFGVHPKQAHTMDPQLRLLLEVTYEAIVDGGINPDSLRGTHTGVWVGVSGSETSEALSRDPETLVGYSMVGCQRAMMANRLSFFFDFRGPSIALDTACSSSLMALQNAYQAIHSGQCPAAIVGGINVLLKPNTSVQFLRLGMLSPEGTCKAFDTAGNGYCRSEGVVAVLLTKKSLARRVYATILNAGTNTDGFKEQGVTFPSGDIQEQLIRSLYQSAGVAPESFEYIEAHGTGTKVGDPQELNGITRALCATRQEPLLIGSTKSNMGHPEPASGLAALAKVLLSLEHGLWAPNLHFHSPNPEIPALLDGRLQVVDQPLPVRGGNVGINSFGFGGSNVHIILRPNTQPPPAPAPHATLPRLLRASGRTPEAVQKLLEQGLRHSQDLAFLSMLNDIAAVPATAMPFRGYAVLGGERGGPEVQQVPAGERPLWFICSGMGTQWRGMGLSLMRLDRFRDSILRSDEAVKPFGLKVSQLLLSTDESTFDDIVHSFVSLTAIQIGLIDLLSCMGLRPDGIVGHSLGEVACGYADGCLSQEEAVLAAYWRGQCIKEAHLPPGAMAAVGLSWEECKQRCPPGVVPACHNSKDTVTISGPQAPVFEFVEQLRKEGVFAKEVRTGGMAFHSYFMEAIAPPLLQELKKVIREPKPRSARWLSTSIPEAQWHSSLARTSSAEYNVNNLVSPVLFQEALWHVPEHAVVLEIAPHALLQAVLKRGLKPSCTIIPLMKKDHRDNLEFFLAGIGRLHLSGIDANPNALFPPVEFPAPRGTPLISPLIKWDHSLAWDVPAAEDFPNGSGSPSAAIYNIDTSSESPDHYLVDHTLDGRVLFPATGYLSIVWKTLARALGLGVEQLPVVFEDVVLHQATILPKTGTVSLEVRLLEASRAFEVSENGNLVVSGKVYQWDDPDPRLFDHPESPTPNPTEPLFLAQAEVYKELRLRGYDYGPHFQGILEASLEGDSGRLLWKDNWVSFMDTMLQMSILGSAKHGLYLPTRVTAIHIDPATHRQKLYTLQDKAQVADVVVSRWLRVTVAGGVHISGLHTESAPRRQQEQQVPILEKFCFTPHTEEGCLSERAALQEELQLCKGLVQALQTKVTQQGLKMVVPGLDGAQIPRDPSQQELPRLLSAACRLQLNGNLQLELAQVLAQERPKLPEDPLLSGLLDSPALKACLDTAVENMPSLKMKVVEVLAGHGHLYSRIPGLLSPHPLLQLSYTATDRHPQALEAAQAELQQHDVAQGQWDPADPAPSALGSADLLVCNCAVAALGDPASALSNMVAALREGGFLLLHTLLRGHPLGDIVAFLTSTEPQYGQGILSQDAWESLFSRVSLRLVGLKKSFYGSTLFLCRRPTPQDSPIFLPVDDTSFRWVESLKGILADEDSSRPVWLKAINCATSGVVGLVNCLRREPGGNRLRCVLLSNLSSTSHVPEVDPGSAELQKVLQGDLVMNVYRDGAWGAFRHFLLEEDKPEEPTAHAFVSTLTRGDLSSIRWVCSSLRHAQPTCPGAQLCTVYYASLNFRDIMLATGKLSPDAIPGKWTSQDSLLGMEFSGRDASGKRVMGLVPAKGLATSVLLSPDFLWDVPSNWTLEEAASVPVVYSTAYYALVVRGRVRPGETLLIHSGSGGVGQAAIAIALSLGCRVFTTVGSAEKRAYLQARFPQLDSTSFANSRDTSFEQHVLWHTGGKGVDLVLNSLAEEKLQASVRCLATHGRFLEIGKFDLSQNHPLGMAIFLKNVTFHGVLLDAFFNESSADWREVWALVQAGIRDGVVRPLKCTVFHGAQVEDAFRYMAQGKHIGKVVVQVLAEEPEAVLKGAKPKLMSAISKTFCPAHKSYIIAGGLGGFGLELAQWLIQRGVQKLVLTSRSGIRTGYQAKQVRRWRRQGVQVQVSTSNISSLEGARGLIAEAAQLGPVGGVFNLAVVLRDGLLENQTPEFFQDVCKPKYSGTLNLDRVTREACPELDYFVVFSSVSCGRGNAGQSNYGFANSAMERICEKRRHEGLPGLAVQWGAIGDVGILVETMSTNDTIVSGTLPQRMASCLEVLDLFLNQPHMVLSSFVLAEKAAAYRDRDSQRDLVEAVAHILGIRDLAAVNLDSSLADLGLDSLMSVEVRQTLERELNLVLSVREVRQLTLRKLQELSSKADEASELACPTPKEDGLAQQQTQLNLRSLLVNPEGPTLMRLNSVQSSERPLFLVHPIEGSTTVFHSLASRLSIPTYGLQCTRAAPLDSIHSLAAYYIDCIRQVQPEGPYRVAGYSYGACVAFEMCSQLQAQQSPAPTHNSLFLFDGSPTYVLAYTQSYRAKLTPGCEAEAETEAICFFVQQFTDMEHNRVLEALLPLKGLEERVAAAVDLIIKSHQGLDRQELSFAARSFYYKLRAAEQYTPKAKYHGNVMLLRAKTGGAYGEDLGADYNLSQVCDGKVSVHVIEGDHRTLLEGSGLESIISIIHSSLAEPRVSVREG

inhibition at 100 µM [%] | Compound
72.6 | Cc1ccc(C(=O)N2CCC(c3ccc(F)cc3)CC2)cc1NC(=O)NC(C)C [Example 325, 1-[5-[4-(4-fluorophenyl)piperidine-1-carbonyl]-2-methyl-phenyl]-3-propan-2-yl-urea]
91.8 | CC(=O)NCCNC(=O)Nc1cc(C(=O)N2CCC(c3ccc(C(F)(F)F)cc3)CC2)ccc1C [Example 326, N-[2-[[2-methyl-5-[4-[4-(trifluoromethyl)phenyl]piperidine-1-carbonyl]phenyl]carbamoylamino]ethyl]acetamide]
86.7 | COc1ccc(C2CCN(C(=O)c3ccc(C)c(NC(=O)NC(C)C)c3)CC2)cc1 [Example 328, 1-[5-[4-(4-methoxyphenyl)piperidine-1-carbonyl]-2-methyl-phenyl]-3-propan-2-yl-urea]
84.3 | CNC(=O)c1ccc(C2CCN(C(=O)c3ccc(C)c(NC(=O)NC(C)C)c3)CC2)cc1 [Example 329, N-methyl-4-[1-[4-methyl-3-(propan-2-ylcarbamoylamino)benzoyl]-4-piperidyl]benzamide]
90.9 | Cc1ccc(C(=O)N2CCC(c3ccc(C(F)(F)F)cc3)CC2)cc1NC(=O)NC1CCCN(C(=O)OC(C)(C)C)C1 (stereo not shown) [Example 333, tert-butyl 3-[[2-methyl-5-[4-[4-(trifluoromethyl)phenyl]piperidine-1-carbonyl]phenyl]carbamoylamino]piperidine-1-carboxylate]
92.6 | Cc1ccc(C(=O)N2CCC(c3ccc(C(F)(F)F)cc3)CC2)cc1NC(=O)NCCN(C)C [Example 334, 3-(2-dimethylaminoethyl)-1-[2-methyl-5-[4-[4-(trifluoromethyl)phenyl]piperidine-1-carbonyl]phenyl]urea]
86.9 | Cc1ccc(C(=O)N2CCC(c3ccc(C(F)(F)F)cc3)CC2)cc1NC(=O)NCCNC(=O)OC(C)(C)C [Example 336, tert-butyl N-[2-[[2-methyl-5-[4-[4-(trifluoromethyl)phenyl]piperidine-1-carbonyl]phenyl]carbamoylamino]ethyl]carbamate]
90.1 | Cc1ccc(C(=O)N2CCC(c3ccc(C(F)(F)F)cc3)CC2)cc1NC(=O)NC1CCCNC1 (stereo not shown) [Example 337, 1-[2-methyl-5-[4-[4-(trifluoromethyl)phenyl]piperidine-1-carbonyl]phenyl]-3-(3-piperidyl)urea]
81.3 | CC(=O)NCCNC(=O)Nc1cc(C(=O)N2CCC(c3ccc(F)cc3)CC2)ccc1C [Example 338, N-[2-[[5-[4-(4-fluorophenyl)piperidine-1-carbonyl]-2-methyl-phenyl]carbamoylamino]ethyl]acetamide]
81.3 | Cc1ccc(C(=O)N2CCC(c3ccc(F)cc3)CC2)cc1NC(=O)NC1CN(C(=O)OC(C)(C)C)C1 [Example 339, tert-butyl 3-[[5-[4-(4-fluorophenyl)piperidine-1-carbonyl]-2-methyl-phenyl]carbamoylamino]azetidine-1-carboxylate]
96 | Cc1ccc(C(=O)N2CCC(c3ccc(C(F)(F)F)cc3)CC2)cc1NC(=O)NCCNS(=O)(=O)N(C)C [Example 340, 3-[2-(dimethylsulfamoylamino)ethyl]-1-[2-methyl-5-[4-[4-(trifluoromethyl)phenyl]piperidine-1-carbonyl]phenyl]urea]
95.4 | Cc1ccc(C(=O)N2CCC(c3ccc(C(F)(F)F)cc3)CC2)cc1NC(=O)NCCNS(C)(=O)=O [Example 341, 3-(2-methanesulfonamidoethyl)-1-[2-methyl-5-[4-[4-(trifluoromethyl)phenyl]piperidine-1-carbonyl]phenyl]urea]
82.8 | Cc1ccc(C(=O)N2CCC(c3ccc(C(F)(F)F)cc3)CC2)cc1NC(=O)NCCN [Example 342, 3-(2-aminoethyl)-1-[2-methyl-5-[4-[4-(trifluoromethyl)phenyl]piperidine-1-carbonyl]phenyl]urea]
86.3 | Cc1ccc(C(=O)N2CCC(c3ccc(F)cc3)CC2)cc1NC(=O)NCCN(C)C(=O)OC(C)(C)C [Example 347, tert-butyl N-[2-[[5-[4-(4-fluorophenyl)piperidine-1-carbonyl]-2-methyl-phenyl]carbamoylamino]ethyl]-N-methyl-carbamate]
84.5 | CC(=O)N1CCC(NC(=O)Nc2cc(C(=O)N3CCC(c4ccc(F)cc4)CC3)ccc2C)C1 (stereo not shown) [Example 348, 3-(1-acetylpyrrolidin-3-yl)-1-[5-[4-(4-fluorophenyl)piperidine-1-carbonyl]-2-methyl-phenyl]urea]
88.9 | Cc1ccc(C(=O)N2CCC(c3ccc(F)cc3)CC2)cc1NC(=O)NCCN(C)S(C)(=O)=O [Example 351, 1-[5-[4-(4-fluorophenyl)piperidine-1-carbonyl]-2-methyl-phenyl]-3-[2-(methyl-methylsulfonyl-amino)ethyl]urea]
75.6 | CC(=O)N(C)CCNC(=O)Nc1cc(C(=O)N2CCC(c3ccc(F)cc3)CC2)ccc1C [Example 352, N-[2-[[5-[4-(4-fluorophenyl)piperidine-1-carbonyl]-2-methyl-phenyl]carbamoylamino]ethyl]-N-methyl-acetamide]
78.4 | CCC(=O)NCCN(C)C(=O)Nc1cc(C(=O)N2CCC(c3ccc(C#N)cc3)CC2)ccc1C [Example 353, N-[2-[[5-[4-(4-cyanophenyl)piperidine-1-carbonyl]-2-methyl-phenyl]carbamoyl-methyl-amino]ethyl]propanamide]
92.4 | Cc1ccc(C(=O)N2CCC(c3ccc(C#N)cc3)CC2)cc1NC(=O)NCc1cnn(C)c1 [Example 356, 1-[5-[4-(4-cyanophenyl)piperidine-1-carbonyl]-2-methyl-phenyl]-3-[(1-methylpyrazol-4-yl)methyl]urea]

The remaining lines, values behind:

Compound | inhibition at 100 µM [%]
Cc1ccc(C(=O)N2CCC(c3cccc(C#N)c3)CC2)cc1NC(=O)NC(C)C [Example 327, 1-[5-[4-(3-cyanophenyl)piperidine-1-carbonyl]-2-methyl-phenyl]-3-propan-2-yl-urea] | 93.1
CCOC(=O)N1CCN(C(=O)Nc2cc(C(=O)N3CCC(c4ccc(C#N)cc4)CC3)ccc2C)CC1 [Example 330, Ethyl 4-[[5-[4-(4-cyanophenyl)piperidine-1-carbonyl]-2-methyl-phenyl]carbamoyl]piperazine-1-carboxylate] | 82.4
Cc1ccc(C(=O)N2CCC(c3ccc(C#N)cc3)CC2)cc1NC(=O)N1CCN(C(=O)C(C)C)CC1 [Example 331, N-[5-[4-(4-cyanophenyl)piperidine-1-carbonyl]-2-methyl-phenyl]-4-(2-methylpropanoyl)piperazine-1-carboxamide] | 84.2
Cc1ccc(C(=O)N2CCC(c3ccc(C#N)cc3)CC2)cc1NC(=O)N1CCN(C(=O)N(C)C)CC1 [Example 332, N-[5-[4-(4-cyanophenyl)piperidine-1-carbonyl]-2-methyl-phenyl]-N′,N′-dimethyl-piperazine-1,4-dicarboxamide] | 96.5
Cc1ccc(C(=O)N2CCC(c3ccc(C#N)cc3)CC2)cc1NC(=O)NC1(C)CCS(=O)(=O)C1 (stereo not shown) [Example 335, 1-[5-[4-(4-cyanophenyl)piperidine-1-carbonyl]-2-methyl-phenyl]-3-(3-methyl-1,1-dioxo-thiolan-3-yl)urea] | 78.2
Cc1ccc(C(=O)N2CCC(c3ccc(F)cc3)CC2)cc1NC(=O)NC1CCN(C(=O)OC(C)(C)C)C1 (stereo not shown) [Example 343, tert-butyl 3-[[5-[4-(4-fluorophenyl)piperidine-1-carbonyl]-2-methyl-phenyl]carbamoylamino]pyrrolidine-1-carboxylate] | 93.6
Cc1ccc(C(=O)N2CCC(c3ccc(C#N)cc3)CC2)cc1NC(=O)N1CCC(S(C)(=O)=O)C1 (stereo not shown) [Example 344, N-[5-[4-(4-cyanophenyl)piperidine-1-carbonyl]-2-methyl-phenyl]-3-methylsulfonyl-pyrrolidine-1-carboxamide] | 112
Cc1ccc(C(=O)N2CCC(c3ccc(C#N)cc3)CC2)cc1NC(=O)N1CC(O)C1 [Example 345, N-[5-[4-(4-cyanophenyl)piperidine-1-carbonyl]-2-methyl-phenyl]-3-hydroxy-azetidine-1-carboxamide] | 96.5
Cc1ccc(C(=O)N2CCC(c3ccc(C#N)cc3)CC2)cc1NC(=O)N1CCC1 [Example 346, N-[5-[4-(4-cyanophenyl)piperidine-1-carbonyl]-2-methyl-phenyl]azetidine-1-carboxamide] | 75.5
Cc1ccc(C(=O)N2CCC(c3ccc(F)cc3)CC2)cc1NC(=O)NC1CCNC1 (stereo not shown) [Example 349, 1-[5-[4-(4-fluorophenyl)piperidine-1-carbonyl]-2-methyl-phenyl]-3-pyrrolidin-3-yl-urea] | 88.7
Cc1ccc(C(=O)N2CCC(O)(c3ccc(Cl)cc3)CC2)cc1NC(=O)NC(C)C [Example 350, 1-[5-[4-(4-chlorophenyl)-4-hydroxy-piperidine-1-carbonyl]-2-methyl-phenyl]-3-propan-2-yl-urea] | 71.4
Cc1ccc(C(=O)N2CCC(c3ccc(C#N)cc3)CC2)cc1NC(=O)NC(C)c1cccnc1 (stereo not shown) [Example 354, 1-[5-[4-(4-cyanophenyl)piperidine-1-carbonyl]-2-methyl-phenyl]-3-(1-pyridin-3-ylethyl)urea] | 91.3
Cc1ccc(C(=O)N2CCC(c3ccc(Cl)cc3)CC2)cc1NC(=O)NCc1ccccn1 [Example 355, 1-[5-[4-(4-chlorophenyl)piperidine-1-carbonyl]-2-methyl-phenyl]-3-(pyridin-2-ylmethyl)urea] | 82.2
Cc1ccc(C(=O)N2CCC(c3ccc(C#N)cc3)CC2)cc1NC(=O)NC(C)c1ccncc1 (stereo not shown) [Example 357, 1-[5-[4-(4-cyanophenyl)piperidine-1-carbonyl]-2-methyl-phenyl]-3-(1-pyridin-4-ylethyl)urea] | 102
Cc1ccc(C(=O)N2CCC(c3ccc(C#N)cc3)CC2)cc1NC(=O)NCc1cccc(N2CCOCC2)n1 [Example 358, 1-[5-[4-(4-cyanophenyl)piperidine-1-carbonyl]-2-methyl-phenyl]-3-[(6-morpholin-4-ylpyridin-2-yl)methyl]urea] | 93.2
